Patent US11844768B2, “Terameprocol and nordihydroguaiaretic acid (NDGA) derivatives as coronavirus anti-viral agents” (Erimos Pharmaceuticals, LLC, priority 2021, dated 2023)
Where a name gives a salt, the structure may show the parent alone. Read-outs that look alike come from different tables or passages of the source.

Experiments:
[1] = test system: NL63-infected LLC-MK2 cells; assay: LDH release cytotoxicity assay on NL63-infected LLC-MK2 cells; type: cell-based, rhesus monkey; conditions: five days
Experimental: With reference to FIG. 2 (Example 2), the exposure time of TMP on NL63-infected LLC-MK2 cells was measured to determine if long-term exposure to TMP could result in cell cytotoxicity. Cytotoxicity to the host cells can be caused by viral infection, which causes cell lysis, or by toxicity of test compounds to host cells. Cytotoxicity is measured by the release of lactate dehydrogenase (LDH), a cellular housekeeping enzyme, and its conversion of a colored substrate in the final reaction. Cells that die or lyse release LDH into the extracellular milieu; thus, the more LDH that is released by dying cells, the higher the LDH reading.
LLC-MK2 cells were inoculated with NL63 as provided in Example 1. The cells were tested for cytotoxicity through the release of lactate dehydrogenase (LDH), the latter of which was measured and quantified with an LDH assay multiplate reader. The cytotoxicity assay was performed three times and values for each treatment group and controls were averaged across assays, as show in FIGS. 2 and 3.

[2] = test system: SARS-CoV-2-infected Vero E6 cells; assay: Cell cytotoxicity (cell lysis / plaques, monoclonal antibody) of SARS-CoV-2-infected Vero E6 cells; type: cell-based, African green monkey; conditions: 48 hours; for cell cytotoxicity (cell lysis): FIG. 5
Experimental: With reference to FIG. 5 (Example 3), Vero E6 were infected with SARS-CoV-2 virus, treated with 0.2 μM, 1.0 μM, 5.0 μM, 20 μM, and 80 μM of TMP, and tested for cell cytotoxicity using monoclonal antibodies after 48 hours. Infected Vero E6 cells without treatment were used as a negative control and infected Vero E6 cells treated with CM were used as a positive control. Here, the cells were tested for cytotoxicity via the formation of plaques identified with a monoclonal antibody.
(§1) Vero E6 African green monkey kidney epithelial cells were cultured as host cells for the SARS-CoV-2 coronavirus in 96-well cell culture plates. 500-1500 units of SARS-CoV-2 virus in Eagle's minimal essential medium (EMEM) with 10% Fetal Bovine Serum (FBS), L-glutamine, and Na-pyruvate phosphate buffered saline was introduced to the Vero E6 cell culture wells as described in Ogando et al., Journal of General Virology (2020) (available at biorxiv.org/content/10.1101/2020.04.20.049924v1). […] Plaques were identified using a plaque assay with the mouse monoclonal antibody J2 (Ogando et al., supra). Viral RNA was also isolated from the media supernatant and virus copy number was determined by RT-PCR for estimation of virus copy number following treatment.
Stock solutions of TMP were prepared by dissolving TMP in 100% DMSO at 50 mM with warming at 70° C. for 3 hours. TMP was added to the SARS-CoV-2-infected Vero E6 cells in the following concentrations: 0.2 μM, 1 μM, 5 μM, 20 μM, and 80 μM. Untreated infected Vero E6 cells and infected Vero E6 treated with CM were used as negative and positive controls, respectively. 48 hours following treatment with TMP, 400 μL of supernatant was collected from each plate well and viral RNA (no cellular RNA was collected) and virus copy number were measured from the extracted DNA by the ORIG3N RT-PCR test for the 1 μM, 5 μM, and 20 μM TMP-treatment wells as well as for the negative and positive controls. Separately, cell lysis was measured for all five TMP-treatment wells as well as for the negative and positive controls. The assay was repeated two additional times. FIGS. 4A-4C show the mean±SD of the number of copies of SARS-CoV-2 RNA measured from the cell supernatant for the three assay runs of the Vero E6 cells.

[3] = test system: SARS-CoV-2; type: cell-based; conditions: 48 hours, Calu-3, FIG. 6
[4] = test system: SARS-CoV-2; type: cell-based
[5] = test system: SARS-CoV-2-infected Calu-3 cells; assay: Cell cytotoxicity (plaques, monoclonal antibody) of SARS-CoV-2-infected Calu-3 cells; type: cell-based, human; conditions: 48 hours, Calu-3, FIG. 6
Experimental: With reference to FIG. 6 (Example 4), the TMP-treatment protocol for the Vero E6 cells was repeated with Calu-3 cells (human non-small-cell lung cancer cells) infected with SARS-CoV-2. Infected Calu-3 cells without treatment were used as a negative control and infected Calu-3 cells treated with CM were used as a positive control. A monoclonal antibody was used to identify cell cytotoxicity.
as §1, with “Calu-3 human non-small-cell lung cancer” for “Vero E6 African green monkey kidney epithelial”, “supra.” for “Journal of General Virology (2020) (available at biorxiv.org/content/10.1101/2020.04.20.049924v1).”
Stock solutions of TMP were prepared by dissolving TMP in 100% DMSO at 50 mM with warming at 70° C. for 3 hours. TMP was added to the SARS-CoV-2-infected Vero E6 cells in the following concentrations: 5 μM, 20 μM, and 40 μM. Untreated infected Vero E6 cells and infected Vero E6 treated with CM were used as negative and positive controls, respectively. 48 hours following treatment with TMP, 400 μL of supernatant was collected from each plate well and viral RNA (no cellular RNA was collected) and virus copy number were measured determined from the extracted DNA by the ORIG3N RT-PCR test. The assay was repeated two additional times.

[6] = test system: HCoV-NL63; conditions: 48 hours; for cell toxicity resulting from the TMP treatment: LLC-MK2 cells

`CN(C)C(=O)COC(=O)Cc1ccc(OC(=O)c2ccc(NC(=N)N)cc2)cc1` [CM, camostat mesylate, reference compound] was tested, and the “cell toxicity (LDH release)” value ([1]; CM positive control, FIG. 2) was “no cell toxicity”, the “cell cytotoxicity (cell lysis)” value ([2]; CM positive control) was “no appreciable cytotoxic effects” and the viral replication ([3]; CM control) was “almost zero viral replication”.
In the case of `COc1ccc(C[C@@H](C)[C@@H](C)Cc2ccc(OC)c(OC)c2)cc1OC` [TMP, Tetra-O-methyl NDGA], the “cell lysis (LDH release)” value ([1]; 0.2 μM TMP, FIG. 3) is reported as 1-2%, the “cell lysis (LDH release)” value ([1]; 5 μM TMP, FIG. 2) is reported as 10% and the “cell lysis (LDH release)” value ([1]; 5 μM TMP, FIG. 3) is reported as roughly 20%. The “cell lysis (LDH release)” value ([1]; 20 μM TMP, FIG. 2) was 20-30%, the “cell lysis (LDH release), observation” value ([1]; 80 μM TMP, FIG. 2) was “cells separating from the plate” and the “cell lysis (LDH release)” value ([1]; increased TMP concentration (between 0.2 and 5 μM; FIG. 3 series 0.2, 1, 5 μM)) was “approximately 8%”. For the same molecule, the viral activity ([4]; 1 μM TMP, 48 hours, FIGS. 4B and 4C) was “increase in viral activity”, the viral replication ([4]; 5 μM TMP, 48 hours, FIGS. 4B and 4C) was “zero viral replication” and the viral replication ([4]; 20 μM TMP, 48 hours, FIG. 4A) was “almost zero viral replication”. For the same molecule, the viral replication ([4]; 20 μM TMP, 48 hours, FIGS. 4B and 4C) was “reduction in viral replication comparable to the CM-treated positive control”, the “dose response of viral replication” value ([4]; FIG. 4A, 48 hours, Vero E6) was “linear dose response” and the “optimal TMP treatment range” value ([4]; SARS-CoV-2-infected Vero E6 in vitro, FIGS. 4A-4C) was 5 µM. For the same molecule, the “cell cytotoxicity (cell lysis)” value ([2]; 0.2 μM TMP) was “no appreciable cytotoxic effects”, the “cell cytotoxicity (cell lysis)” value ([2]; 1.0 μM TMP) was “no appreciable cytotoxic effects” and the “cell cytotoxicity (cell lysis)” value ([2]; 5 μM TMP) was “no appreciable cytotoxic effects”. The “cell cytotoxicity (cell lysis)” value ([2]; 20 μM TMP) was “reduced in comparison to the 80 μM treatment”, the “cell toxicity resulting from the TMP treatment” value (from here on “cell toxicity resulting”) ([2]; 20 μM TMP, FIGS. 4B and 4C runs) was “no discernable cell toxicity” and the “cell cytotoxicity (cell lysis)” value ([2]; 80 μM TMP) was “high percentage of cell lysis”. The “reduction in the mean number of copies of SARS-CoV-2 compared to the negative control” value ([3]; 5 μM TMP) was 25%, the viral replication ([3]; 20 μM TMP) was “almost zero viral replication” and the viral replication ([3]; 40 μM TMP) was “almost zero viral replication”. The cell cytotoxicity ([5]; 5 μM TMP) was “non-detectable cytotoxicity”, the cell cytotoxicity ([5]; 20 μM TMP) was “non-detectable cytotoxicity” and the cell cytotoxicity ([5]; 40 μM TMP) was “only slightly increased cytotoxicity”. For the same molecule, the viral activity ([6]; 0.2 μM TMP, FIG. 1) was “partial reduction in viral activity”, the “viral RNA copy number (mean+standard deviation)” value ([6]; 0.2 μM TMP, NL63-infected LLC-MK2 cells, FIG. 1, P=0.004 versus negative control) was 50,882+2,296 copies and the viral activity ([6]; 1 μM TMP, FIG. 1) was “almost no viral activity”. For the same molecule, the “cell toxicity resulting” value ([6]; 1 μM TMP) was “no discernable cell toxicity”, the viral activity ([6]; 5 μM TMP, FIG. 1) was “almost no viral activity” and the “cell toxicity resulting” value ([6]; 5 μM TMP) was “no discernable cell toxicity”. For the same molecule, the “dose response of viral RNA” value ([6]; 0.2, 1 and 5 μM TMP, FIG. 1) was “linear response that plateaued at 1 μM TMP”.
